Experiments:
Na+/K+-ATPase (α1β1) = Na+/K+-ATPase (α1β1) (Sus scrofa, UniProt P05024); assay: biochemical
[1] = tested on: plasma membrane Ca2+-ATPase (PMCA; isoform not resolved); assay type: cell-based

Row | Compound | IC50 (Na+/K+-ATPase (α1β1)) [nM] | % inhibition at 100 nM [1]
1 | C[C@@H]1O[C@@H](O[C@H]2CC[C@@]3(C)[C@H](CC[C@@H]4[C@@H]3CC[C@]3(C)[C@@H](C5=CC(=O)OC5)CC[C@]43O)C2)[C@H](O)[C@H](O)[C@H]1O [compound 1, digitoxigenin-α-L-rhamno-pyranoside] | 12 ± 1 | –
2 | C[C@@H]1O[C@@H](O[C@H]2CC[C@@]3(C)[C@H](CC[C@@H]4[C@@H]3CC[C@]3(C)[C@@H](C5=CC(=O)OC5)CC[C@]43O)C2)CC[C@H]1O [compound 2, digitoxigenin-α-L-amiceto-pyranoside] | 41 ± 3 | ~ 25% inhibition at 100
